In publication PMC6934550 (Scientific Reports, 2019):
Several values for one entry are separate records, joined by “and”; a condition that tells them apart may be missing. Identical values can stand only once. Entries after “also recorded” stand apart in the source; their conditions may differ. Counter-ions that a name gives are not always drawn. Like-named read-outs stand apart in the source and are kept apart here.

How the values were obtained:
[1] = test system: EBOV (Makona variant, EBOV/Mak); type: cell-based, Ebola virus
EBOV/Mak = test system: EBOV/Mak; set-up: species or system Rhesus macaques; settings: rhesus monkey, in vivo
[2] = test system: monocyte-derived macrophages (MDMs)
[3] = rhesus monkey, in vivo
[4] = rhesus monkey, in vivo; remark: listed apart in the source
[5] = rhesus monkey, in vivo; remark: listed apart in the source
EBOV = settings: cited from earlier work
in vivo = settings: both, rhesus monkey, po; for AUC(0-t): AUClast
in vitro [6] = settings: African green monkey
[7] = human, in vivo, 10 mg/kg; cited from earlier work
in vitro [8] = settings: human
in vitro [9] = settings: human; remark: listed apart in the source
[10] = read-out: IC50 range over cell types
[11] = 40 mg/kg, elimination phase half-life (t1/2), range among individual animals

| SMILES | Max effect [1] | IC50 [1, 10] [µM] | cytotoxicity [2] | Cmax (range) ([3]; 20 mg/kg) | in vitro antiviral activity against EBOV (EBOV) | Cmax (in vivo; 20 mg/kg, mean) [ng/mL] | Cmax (in vivo; 40 mg/kg, mean) [ng/mL] | Tmax (in vivo; 40 mg/kg, Tmax (range)) [h] | Tmax (in vivo; 40 mg/kg, Tmax, mean) [h] | half-life (in vivo; [11]) [h] | CC50 (in vitro [6]) [µM] | Cmax [7] [ng/mL] | in vitro antiviral activity against EBOV [1] | IC50 ([1]; read-out: IC50) | CC50 (in vitro [8]) [µM] | further results |
| --- | --- | --- | --- | --- | --- | --- | --- | --- | --- | --- | --- | --- | --- | --- | --- | --- |
| CCN(CC)Cc1cc(Nc2ccnc3cc(Cl)ccc23)ccc1O [Amodiaquine dihydrochloride hydrate, amodiaquine dihydrochloride dihydrate] | 100% at 30 and 100% at 40 | 3.2 to 27.9 | elevated cytotoxicity | 7.8‒31.9 | known to have in vitro antiviral activity against EBOV | 17.1 | 53.7 | 0.5 to 8 | 5 | 3 to 28 | 40.1 | 29.2 ± 10.9 | – | – | – | RNA levels at necropsy (EBOV/Mak): 10^9–10^11 viral RNA copies/ml; clinical signs, febrile illness, weight loss versus control (EBOV/Mak): Clinical signs did not differ significantly between the groups; hematology and serum chemistry versus control (EBOV/Mak): followed the same trends as the control animal values; plasma viral load (RT-qPCR, plaque assay), words (EBOV/Mak): did not reduce plasma viral RNA copies or infectious virus titer; survival / efficacy (EBOV/Mak): All animals were euthanized or succumbed to disease by day 8 postexposure; also recorded: did not result in a survival benefit or decrease of disease signs; also recorded: did not result in a survival benefit or decrease of disease symptoms; also recorded: did not have a beneficial effect on survival or the symptoms of EVD; Median time to disposition (EBOV/Mak; po, 20 mg/kg): 7 days and 6 days; Tmax, mean ([3]; both, po, 20 mg/kg): 3 h; ALT and AST elevation [4]: 2.6- to 6.3 fold; blood pressure [4]: lower blood pressure readings than at predose; clinical observations [4]: hypoactivity, shivering (muscle tremors) and/or diarrhea; tolerability [4]: well-tolerated; plasma levels of AQ [5]: negligible levels of AQ in all but five plasma samples; in vitro EBOV inhibition (EBOV): potent EBOV inhibitor; AUC(0-t) (in vivo; 20 mg/kg, mean): 74 ng·h/mL; Tmax (in vivo; 20 mg/kg, Tmax, mean): 5 h; AUC(0-inf) (in vivo; 40 mg/kg, AUCinf, mean): 324 ng·h/mL; AUC(0-t) (in vivo; 40 mg/kg, mean): 258 ng·h/mL |
| C[C@H]1[C@@H](O)O[C@@H]2O[C@@]3(C)CC[C@H]4[C@H](C)CC[C@@H]1[C@@]24OO3 [Dihydroartimesinin, dihydroartemisinin] | 64% at 40 and 49% at 40 | – | – | – | – | – | – | – | – | – | > 40 | – | weak or undetectable; also recorded: minimal to no in vitro antiviral activity | 31.5 µM and 35.2 µM | > 40 | – |
| CCNCc1cc(Nc2ccnc3cc(Cl)ccc23)ccc1O [N-Desethylamodiaquine hydrochloride, N-desethylamodiaquine hydrochloride] | 100% at 40 and 80% at 40 | 2.8 to 30 | elevated cytotoxicity | 203‒369 | known to have in vitro antiviral activity against EBOV | 287 | 618 | 0.5 to 8 | 5 | 12 to 51 | 33.1 | 268.7 ± 70.8 | – | – | – | AUClast and AUCinf, fold higher for DEAQ than for AQ ([3]; both, po): 2.5- to 3 fold; t1/2 ([3]; both, po, 20 mg/kg): 15 h; plasma levels of DEAQ ([5]; Chinese origin): detectable in all treated animals from both groups 2 and 3; half-life (in vivo; 20 mg/kg, t1/2, mean): 15.6 h |
| C[C@H]1[C@H](OC(=O)CCC(=O)O)O[C@@H]2O[C@@]3(C)CC[C@H]4[C@H](C)CC[C@@H]1[C@@]24OO3 [Artesunate, artesunate] | – | – | – | – | – | – | – | – | – | – | > 40 | – | weak or undetectable; also recorded: minimal to no in vitro antiviral activity | 17.2 ± 1.2 µM | > 40 | activity against EBOV (EBOV): no activity against EBOV has been demonstrated; CC50 (in vitro [9]): > 40 µM |
